# Assay results taken from PMC4389225, “Triaminopyrimidine is a fast-killing and long-acting antimalarial clinical candidate” (Nature Communications, 2015).
# Several values for one entry are separate records, joined by “and”; a condition that tells them apart may be missing. Equal values may be shown once. Read-outs that look alike come from different tables or passages of the source.
# Key:
# Dd2-DHODH = assay: SYBR green growth assay, Dd2-DHODH mutant; type: cell-based, P. falciparum
# Description: (§1) To eliminate overlapping mode of action with known targets, cross-resistance testing of representative TAPs against drug-resistant lines with well-characterized mutations in Pf dihydroorotate dehydrogenase, Pf heat-shock protein 90, Pf chloroquine resistance transporter[25] or Pf cytochrome b reduction site[26] was performed. […] Assays were carried out in 384-well format with three technical replicates within an assay day and biological replicates carried out on three different assay days to assign a final EC50.
# (§2) A representative TAP (compound 6) was tested for its activity against a panel of P. falciparum strains known to harbour mutations conferring resistance to antimalarial agents under development. Artesunate and amodiaquine were included as additional control […]
# (§3) Values are the means ± standard deviation derived from three independent assays performed
# Dd2-PfCRT = assay: SYBR green growth assay, Dd2-PfCRT mutant; type: cell-based, P. falciparum
# Description: as §1, §2, §3
# Dd2-HSP90 = assay: microbe, parasite or virus in culture; type: cell-based, P. falciparum
# Description: as §1, §2, §3
# Dd2 [1] = assay: SYBR green growth assay, Dd2 (parental); type: cell-based, P. falciparum; conditions: mean ± SD
# Description: as §1, §2, §3
# Dd2-CYTbQi = assay: SYBR green growth assay, Dd2-CYTbQi mutant; type: cell-based, P. falciparum
# Description: as §1, §2, §3
# Pf DD2 = assay: microbe, parasite or virus in culture; type: cell-based; conditions: Plasmodium falciparum
# Text: (§4) tested in duplicate from two independent experiments using a SYBR-Green based assay2.
# (§5) (1 picture or pasted object on this page, not shown here)
# Pf K1 = assay: microbe, parasite or virus in culture; type: cell-based; conditions: Plasmodium falciparum
# Text: as §4, §5
# Pf 7G8 = assay: microbe, parasite or virus in culture; type: cell-based; conditions: Plasmodium falciparum
# Text: as §4, §5
# Pf SB1 = assay: microbe, parasite or virus in culture; type: cell-based; conditions: Plasmodium falciparum
# Text: as §4, §5
# Pf W2 = assay: microbe, parasite or virus in culture; type: cell-based; conditions: Plasmodium falciparum
# Text: as §4, §5
# Pf NF54 = assay: microbe, parasite or virus in culture; type: cell-based; conditions: Plasmodium falciparum
# Text: as §4, §5
# Dd2-6R F4 D4 = assay: SYBR green growth assay, Dd2-6R F4 D4; conditions: Plasmodium falciparum
# Description: (§7) The drug was then washed off and the parasites were allowed to recover in normal growth media.
# Dd2-6R F2 D8 = assay: SYBR green growth assay, Dd2-6R F2 D8; conditions: Plasmodium falciparum
# Description: as §7
# Dd2-6R F4 G7 = assay: SYBR green growth assay, Dd2-6R F4 G7; conditions: Plasmodium falciparum
# Description: as §7
# Dd2-6R F2 B5 = assay: SYBR green growth assay, Dd2-6R F2 B5; conditions: for IC50: Plasmodium falciparum, DD2
# Description: as §7
# Dd2-6R F2 C5 = assay: SYBR green growth assay, Dd2-6R F2 C5; conditions: Plasmodium falciparum
# Description: as §7
# Dd2 DHODH DSM265 = assay: [3H]-hypoxanthine incorporation assay, Dd2 DHODH DSM265 resistant; type: cell-based; conditions: Plasmodium falciparum
# Description: (§6) Supplementary Table 3: Compound 9 and 12 retain their activity against Pf strains harbouring mutations to novel antimalarial agents in clinical development. Compound 9 and 12 were tested for their antiplasmodial activity against a panel of Pf strains known to harbour mutations conferring resistance to novel agents under clinical development. Parasite growth inhibition is measured using the [3H]-hypoxanthine incorporation assay. IC50s are established for each strain (n ≥2) and compared to the IC50 of Dd2 (standard pan-resistant […]
# Dd2 [2] = assay: [3H]-hypoxanthine incorporation assay, Dd2; type: cell-based, Plasmodium falciparum
# Description: 9 and 12 were tested for their antiplasmodial activity against a panel of Pf strains known to harbour mutations conferring resistance to novel agents under clinical development. Parasite growth inhibition is measured using the [3H]-hypoxanthine incorporation assay. IC50s are established for each strain (n ≥2) and compared to the IC50 of Dd2 (standard pan-resistant
# Dd2 bc-1 ELQ-300 = assay: [3H]-hypoxanthine incorporation assay, Dd2 bc-1 ELQ-300 resistant; type: cell-based, Plasmodium falciparum; conditions: Dd2 bc-1 ELQ-300; read-out: IC50
# Description: as §6
# Dd2 PfATP4 NITD609 = assay: [3H]-hypoxanthine incorporation assay, Dd2 PfATP4 NITD609 resistant; type: cell-based; conditions: Plasmodium falciparum
# Description: as §6
# [3] = target: T1, acetylcholine esterase (AChE) (Homo sapiens, UniProt P22303); assay: AChE enzyme activity assay (CEREP); type: biochemical; conditions: read-out: AChE IC50
# T1 construct: purchased CEREP, France (external assay service) 0363
# T1 sequence (P22303 32-614): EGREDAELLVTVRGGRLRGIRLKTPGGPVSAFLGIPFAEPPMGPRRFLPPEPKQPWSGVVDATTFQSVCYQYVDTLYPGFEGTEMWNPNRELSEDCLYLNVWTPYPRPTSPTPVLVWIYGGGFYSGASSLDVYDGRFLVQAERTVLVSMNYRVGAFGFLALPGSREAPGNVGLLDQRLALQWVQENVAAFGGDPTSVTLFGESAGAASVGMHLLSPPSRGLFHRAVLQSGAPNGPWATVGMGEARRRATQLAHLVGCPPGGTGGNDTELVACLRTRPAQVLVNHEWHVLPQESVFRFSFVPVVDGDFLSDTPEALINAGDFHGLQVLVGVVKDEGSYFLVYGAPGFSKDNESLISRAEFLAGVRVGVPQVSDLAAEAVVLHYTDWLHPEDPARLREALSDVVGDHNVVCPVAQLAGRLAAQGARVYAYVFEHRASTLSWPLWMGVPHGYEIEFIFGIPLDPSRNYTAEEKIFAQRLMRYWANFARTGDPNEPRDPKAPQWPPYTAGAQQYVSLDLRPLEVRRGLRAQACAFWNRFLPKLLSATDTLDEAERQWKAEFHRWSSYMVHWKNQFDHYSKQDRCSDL
# Description: An in vitro pharmacological profiling panel was specifically designed for the detection of potential high- risk clinical adverse drug reactions. The panel comprised of 26 diverse targets (6 enzymes, 2 transporters, 9 G-protein-coupled receptors (GPCRs), 5 ion channels along with hERG, M2, alpha1A and AchE) and was conduced externally by CEREP, France […]. […] Detailed methodology for in vitro pharmacological profiling assays provided by CEREP can be found at http://www.cerep.fr, with specific reference to the AChE (cat. no. 0363), Muscarinic M1 receptor (cat. no. 0091) and Adrenergic α1A receptor (cat. no. 2338) assays. For enzyme and kinase assays, the results were expressed as a percent inhibition of control-specific activity obtained in the presence of the test compound. The IC50 values (concentration causing a half-maximal inhibition of control-specific activity) and Hill coefficients (nH) were determined by nonlinear regression analysis of the inhibition/concentration–response curves using Hill equation curve fitting as described earlier.
# hERG = target: T2, hERG (Homo sapiens, UniProt Q12809); assay: electrophysiology-based hERG assay using IonWorks HT (CHO cells); type: cell-based; conditions: hERG IC50
# T2 construct: expressed in transfected cells; host or cells: CHO cells
# T2 sequence (Q12809 whole entry): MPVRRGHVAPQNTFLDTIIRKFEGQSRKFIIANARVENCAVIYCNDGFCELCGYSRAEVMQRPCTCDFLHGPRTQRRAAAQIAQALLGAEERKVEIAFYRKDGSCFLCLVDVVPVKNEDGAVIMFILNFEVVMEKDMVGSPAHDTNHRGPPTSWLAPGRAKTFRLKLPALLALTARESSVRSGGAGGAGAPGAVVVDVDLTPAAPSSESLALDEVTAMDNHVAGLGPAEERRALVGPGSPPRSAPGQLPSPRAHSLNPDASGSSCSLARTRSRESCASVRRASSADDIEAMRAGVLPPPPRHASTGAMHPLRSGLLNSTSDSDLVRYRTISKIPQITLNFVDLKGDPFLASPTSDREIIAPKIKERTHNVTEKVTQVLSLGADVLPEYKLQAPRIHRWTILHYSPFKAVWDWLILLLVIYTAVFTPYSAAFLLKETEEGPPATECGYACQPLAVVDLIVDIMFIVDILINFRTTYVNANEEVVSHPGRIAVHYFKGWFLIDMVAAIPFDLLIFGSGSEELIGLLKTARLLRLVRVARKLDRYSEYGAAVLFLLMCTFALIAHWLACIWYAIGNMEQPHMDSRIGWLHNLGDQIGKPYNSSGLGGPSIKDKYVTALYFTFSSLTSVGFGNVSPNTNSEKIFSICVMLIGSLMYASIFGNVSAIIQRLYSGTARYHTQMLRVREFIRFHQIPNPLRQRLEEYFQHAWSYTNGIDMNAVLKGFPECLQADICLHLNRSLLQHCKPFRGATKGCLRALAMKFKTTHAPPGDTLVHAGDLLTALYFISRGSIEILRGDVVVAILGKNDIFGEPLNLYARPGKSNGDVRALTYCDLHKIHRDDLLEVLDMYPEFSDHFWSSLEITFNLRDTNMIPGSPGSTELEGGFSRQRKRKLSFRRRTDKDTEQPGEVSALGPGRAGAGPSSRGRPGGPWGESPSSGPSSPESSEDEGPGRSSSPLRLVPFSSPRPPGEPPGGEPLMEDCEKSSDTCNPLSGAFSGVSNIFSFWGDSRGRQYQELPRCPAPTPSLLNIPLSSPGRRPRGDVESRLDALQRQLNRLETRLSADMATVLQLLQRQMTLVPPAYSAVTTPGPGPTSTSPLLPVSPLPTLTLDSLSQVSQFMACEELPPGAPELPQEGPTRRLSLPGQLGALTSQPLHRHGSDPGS
# Description: hERG IC50 was determined in an electrophysiology-based hERG assay using IonWorks HT (CHO cells) as described earlier.
# [4] = Plasmodium falciparum, DD2, Dd2, Supplementary Table 2
# [5] = Plasmodium falciparum, DD2, Dd2 parental, Supplementary Table 13
smiles,measurement,setting,value
CCN(CC)Cc1cc(Nc2ccnc3cc(Cl)ccc23)ccc1O [Amodiaquine],IC50,"Dd2-DHODH; Plasmodium falciparum, DD2",10.7 ± 2 nM
same,IC50,"Dd2-PfCRT; Plasmodium falciparum, DD2",8.86 ± 1 nM
same,IC50,"Dd2-HSP90; Plasmodium falciparum, DD2",8.96 ± 0.8 nM
same,IC50,Dd2 [1]; [4],9.83 ± 0.4 nM
same,IC50,"Dd2-CYTbQi; Plasmodium falciparum, DD2",9.9 ± 3 nM
C[C@@H]1CC[C@H]2[C@@H](C)C(=O)O[C@@H]3O[C@@]4(C)CC[C@@H]1[C@]32OO4 [Artemisinin],IC50,Pf DD2,10.3 ± 2 nM
same,IC50,Pf K1,6.5 ± 2 nM
same,IC50,Pf 7G8,1.3 ± 0.1 nM
same,IC50,Pf SB1,16.6 ± 5 nM
same,IC50,Pf W2,6.5 ± 1 nM
same,IC50,Pf NF54,7 ± 4 nM
C[C@H]1[C@H](OC(=O)CCC(=O)O)O[C@@H]2O[C@@]3(C)CC[C@H]4[C@H](C)CC[C@@H]1[C@@]24OO3 [Artesunate],IC50,"Dd2-DHODH; Plasmodium falciparum, DD2",1.81 ± 0.3 nM
same,IC50,Dd2-6R F4 D4,1.6 ± 0.9 nM
same,IC50,Dd2-6R F2 D8,1.4 ± 0.1 nM
same,IC50,Dd2-6R F4 G7,1.6 nM
same,IC50,Dd2-6R F2 B5,1.6 ± 0.2 nM
same,IC50,"Dd2-PfCRT; Plasmodium falciparum, DD2",1.84 ± 0.3 nM
same,IC50,"Dd2-HSP90; Plasmodium falciparum, DD2",1.29 ± 0.2 nM
same,IC50,Dd2-6R F2 C5,1.2 ± 0.1 nM
same,IC50,Dd2 [1]; [4],1.51 ± 0.2 nM
same,IC50,Dd2 [1]; [5],2.6 ± 1.3 nM
same,IC50,"Dd2-CYTbQi; Plasmodium falciparum, DD2",1.26 ± 0.4 nM
O=C1C(O)=C([C@H]2CC[C@H](c3ccc(Cl)cc3)CC2)C(=O)c2ccccc21 [Atovaquone],IC50,Pf DD2,2 ± 0.02 nM
same,IC50,Pf K1,2.3 ± 0.8 nM
same,IC50,Pf 7G8,2.3 ± 0.7 nM
same,IC50,Pf SB1,> 2000 nM
CCN(CC)CCCC(C)Nc1ccnc2cc(Cl)ccc12 (stereo not shown) [Chloroquine],IC50,Pf SB1,11.8 ± 4.5 nM
"Cc1cc(Nc2ccc(S(F)(F)(F)(F)F)cc2)n2nc(C(C)(F)F)nc2n1 [DSM265, reference compound]",IC50,Dd2 DHODH DSM265,48 nM
"COc1cc2[nH]c(C)c(-c3ccc(Oc4ccc(OC(F)(F)F)cc4)cc3)c(=O)c2cc1Cl [ELQ-300, reference compound]",IC50,"Dd2 [2]; Dd2, [3H]-hypoxanthine, read-out: IC50",20 nM
same,IC50,Dd2 bc-1 ELQ-300,125 nM
COC1=C2C[C@@H](C)C[C@H](OC)[C@H](O)[C@@H](C)/C=C(\C)[C@H](OC(N)=O)[C@@H](OC)/C=C\C=C(/C)C(=O)NC(=CC1=O)C2=O [Geldanamycin],IC50,"Dd2-DHODH; Plasmodium falciparum, DD2",257 ± 40 nM
same,IC50,"Dd2-PfCRT; Plasmodium falciparum, DD2",204 ± 20 nM
same,IC50,Dd2 [1]; [4],176 ± 30 nM
same,IC50,"Dd2-CYTbQi; Plasmodium falciparum, DD2",169 ± 40 nM
Cc1nc2c(C#N)cccc2n1-c1ccc(C(=O)NC2CC2)s1 [Genz-669178],IC50,"Dd2-DHODH; Dd2-DHODH, mean ± SD, read-out: IC50",76.8 ± 10 nM
same,IC50,"Dd2-PfCRT; Dd2-PfCRT, mean ± SD, read-out: IC50",5.07 ± 4 nM
same,IC50,"Dd2-HSP90; Dd2-HSP90, mean ± SD, read-out: IC50",16.2 ± 2 nM
same,IC50,"Dd2 [1]; Dd2, Supplementary Table 2, read-out: IC50",5.79 ± 1 nM
same,IC50,"Dd2-CYTbQi; Dd2-CYTbQi, mean ± SD, read-out: IC50",9.94 ± 0.9 nM
CCCCN(CCCC)CC(O)c1cc(Cl)cc2c1-c1ccc(Cl)cc1/C2=C/c1ccc(Cl)cc1 (stereo not shown) [Lumefantrine],IC50,Dd2-6R F4 D4,6.4 ± 2.4 nM
same,IC50,Dd2-6R F2 D8,6 ± 1.7 nM
same,IC50,Dd2-6R F4 G7,5.1 nM
same,IC50,Dd2-6R F2 B5,6.8 ± 2 nM
same,IC50,Dd2-6R F2 C5,5.7 ± 1 nM
same,IC50,Dd2 [1]; [5],15.6 ± 4.8 nM
OC(c1cc(C(F)(F)F)nc2c(C(F)(F)F)cccc12)C1CCCCN1 (stereo not shown) [Mefloquine],IC50,Dd2-6R F4 D4,11.7 nM
same,IC50,Dd2-6R F2 D8,12 nM
same,IC50,Dd2-6R F4 G7,10.7 nM
same,IC50,Dd2-6R F2 B5,11.7 ± 2.6 nM
same,IC50,Dd2-6R F2 C5,12.1 nM
same,IC50,Dd2 [1]; [5],30.1 ± 7.2 nM
"C[C@H]1Cc2c([nH]c3cc(Cl)c(F)cc23)[C@@]2(N1)C(=O)Nc1ccc(Cl)cc12 [NITD609, reference compound]",IC50,Dd2 PfATP4 NITD609,1.7 nM
same,IC50,"Dd2 [2]; Plasmodium falciparum, DD2",0.6 nM
CCc1nc(N)nc(N)c1-c1ccc(Cl)cc1 [Pyrimethamine],IC50,Pf DD2,13800 ± 8620 nM
same,IC50,Pf K1,8560 ± 1980 nM
same,IC50,Pf 7G8,10000 ± 1260 nM
same,IC50,Pf SB1,10.8 ± 4 nM
same,IC50,Pf W2,15400 ± 2830 nM
same,IC50,Pf NF54,28.3 ± 11 nM
CNc1nc(Nc2ccc(OCC(F)(F)F)c(C)n2)ncc1N1CCN[C@H](C)C1 [compound 6],IC50,"Dd2-DHODH; Plasmodium falciparum, DD2",23.2 ± 5 nM
same,IC50,Dd2-6R F4 D4,98.9 nM
same,IC50,Dd2-6R F2 D8,95.7 nM
same,IC50,Dd2-6R F4 G7,112 nM
same,IC50,Dd2-6R F2 B5,102 nM
same,increase in IC50 compared with the parental Dd2 line,Dd2-6R F2 B5; compound 6-resistant Dd2-6R clones (five clones),3-6 fold and 3 fold
same,IC50,"Dd2-PfCRT; Plasmodium falciparum, DD2",18.9 ± 1 nM
same,IC50,"Dd2-HSP90; Plasmodium falciparum, DD2",27.9 ± 7 nM
same,IC50,Dd2-6R F2 C5,96.3 nM
same,IC50,Dd2 [1]; [4],29.5 ± 3 nM
same,IC50,Dd2 [1]; [5],38.7 ± 1.1 nM
same,IC50,"Dd2-CYTbQi; Plasmodium falciparum, DD2",25.7 ± 5 nM
"Cc1nc(Nc2ncc(N3CCN[C@H](C)C3)c(Nc3cc(C)n(C)n3)n2)ccc1F [compound 7, (R)-N4-(1,5-dimethyl-1H-pyrazol-3-yl)-N2-(5-fluoro-6-methylpyridin-2-yl)-5-(3-methylpiperazin-1-yl)pyrimidine-2,4-diamine]",IC50,[3],66000 nM
same,IC50,hERG,> 33000 nM
